The results in this text go back to US20220117972A1, “USE OF PPAR-DELTA AGONISTS IN THE TREATMENT OF MITOCHONDRIAL MYOPATHY” (Reneo Pharmaceuticals, Inc., priority 2019, published 2022).

One assay concerns the target T1, PPARδ (UniProt I0FFS1).
T1 construct: This is inferred from the cell pool name 'UAS-bla-Gal4' and from the general description in b82 and b85
T1 sequence (I0FFS1 1-441): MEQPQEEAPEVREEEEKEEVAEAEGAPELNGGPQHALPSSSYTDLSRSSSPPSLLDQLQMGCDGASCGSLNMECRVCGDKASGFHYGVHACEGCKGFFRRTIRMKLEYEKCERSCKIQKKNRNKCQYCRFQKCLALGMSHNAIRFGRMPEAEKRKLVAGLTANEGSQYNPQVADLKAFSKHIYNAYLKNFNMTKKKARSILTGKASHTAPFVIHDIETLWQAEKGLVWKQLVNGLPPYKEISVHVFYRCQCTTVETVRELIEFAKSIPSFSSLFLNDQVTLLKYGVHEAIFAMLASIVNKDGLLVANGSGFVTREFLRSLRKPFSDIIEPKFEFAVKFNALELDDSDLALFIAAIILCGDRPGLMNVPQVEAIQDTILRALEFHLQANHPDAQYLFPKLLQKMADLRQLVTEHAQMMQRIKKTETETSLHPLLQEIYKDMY
Put plainly: PPAR receptor transactivation assay, monkey PPARδ. In kind it is cell-based.

For assay [1], the target named is T2, PPARα (Mus musculus, UniProt P23204).
T2 construct: expressed in transfected cells; host or cells: Jump-In GripTite HEK293
T2 sequence (P23204 239-466 limits assumed): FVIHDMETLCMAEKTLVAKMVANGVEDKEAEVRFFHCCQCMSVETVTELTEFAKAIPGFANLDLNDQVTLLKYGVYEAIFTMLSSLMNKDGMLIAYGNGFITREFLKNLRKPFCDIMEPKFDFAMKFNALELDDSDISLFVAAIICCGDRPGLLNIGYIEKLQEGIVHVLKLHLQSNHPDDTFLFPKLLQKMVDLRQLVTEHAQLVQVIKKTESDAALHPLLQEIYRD
Put plainly: PPAR receptor transactivation assay, mouse PPARα. Type of assay: cell-based.

Another assay has as its system PGC1, CPT1b expression. Put plainly: in vivo gene expression in mouse muscle, second study (time course). The note with it: male C57BL/6 mice, 30 mg/kg once daily, at 48 hrs. On the procedure:
In a second study, male C57BL/6 mice were dosed once daily for four consecutive days. On the first day of treatment all mice in each group received a single dose of either the vehicle or Compound 1 at 30 mg/kg. Following the dose administration on the first day, five mice from each group were anesthetized and euthanized at each of the following time points: 1, 2, 4, 8, 24, 48, 72 and 96 hours. Animals left after the time point 24 hours received the second dose. Animals left after the time point 48 hours received the third dose. Animals left after the time point 72 hours received the fourth dose. Mice designated for time point 96 hours were euthanized on day 5.

A further assay has as its target T3, LXRβ (Homo sapiens, UniProt P55055).
T3 sequence (P55055 1-460): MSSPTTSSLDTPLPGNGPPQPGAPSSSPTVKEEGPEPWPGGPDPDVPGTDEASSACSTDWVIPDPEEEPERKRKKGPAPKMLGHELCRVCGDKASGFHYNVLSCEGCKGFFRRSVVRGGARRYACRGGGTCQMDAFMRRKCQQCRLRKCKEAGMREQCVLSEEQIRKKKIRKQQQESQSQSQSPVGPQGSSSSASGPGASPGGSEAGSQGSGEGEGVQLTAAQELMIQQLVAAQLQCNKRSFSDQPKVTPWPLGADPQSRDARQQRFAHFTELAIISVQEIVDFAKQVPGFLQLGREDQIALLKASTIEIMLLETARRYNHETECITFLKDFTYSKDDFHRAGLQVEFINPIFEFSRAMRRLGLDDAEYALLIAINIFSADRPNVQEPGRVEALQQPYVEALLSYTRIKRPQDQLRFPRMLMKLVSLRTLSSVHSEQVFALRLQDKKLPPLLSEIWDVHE
Put plainly: nuclear receptor LXRβ activity. Type of assay: cell-based.

In the next assay the target is T4, LXRα (Homo sapiens, UniProt Q13133).
T4 sequence (Q13133 1-447): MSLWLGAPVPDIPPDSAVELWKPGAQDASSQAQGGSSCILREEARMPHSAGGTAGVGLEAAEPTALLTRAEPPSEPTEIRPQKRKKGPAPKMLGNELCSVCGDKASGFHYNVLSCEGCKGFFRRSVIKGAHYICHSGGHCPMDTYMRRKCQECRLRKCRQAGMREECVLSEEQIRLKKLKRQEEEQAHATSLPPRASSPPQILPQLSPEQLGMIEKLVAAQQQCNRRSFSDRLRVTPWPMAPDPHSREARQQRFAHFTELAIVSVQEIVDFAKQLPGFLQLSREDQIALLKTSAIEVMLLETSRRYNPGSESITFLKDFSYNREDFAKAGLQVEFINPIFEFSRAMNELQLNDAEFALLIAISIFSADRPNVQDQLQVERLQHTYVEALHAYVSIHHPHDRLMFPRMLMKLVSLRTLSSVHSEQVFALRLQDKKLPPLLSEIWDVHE
Put plainly: nuclear receptor LXRα activity. Type of assay: cell-based.

The next assay deals with T5, PPARγ (Mus musculus, UniProt P37238).
T5 construct: expressed in transfected cells; host or cells: Jump-In GripTite HEK293
T5 sequence (P37238 238-503 limits assumed): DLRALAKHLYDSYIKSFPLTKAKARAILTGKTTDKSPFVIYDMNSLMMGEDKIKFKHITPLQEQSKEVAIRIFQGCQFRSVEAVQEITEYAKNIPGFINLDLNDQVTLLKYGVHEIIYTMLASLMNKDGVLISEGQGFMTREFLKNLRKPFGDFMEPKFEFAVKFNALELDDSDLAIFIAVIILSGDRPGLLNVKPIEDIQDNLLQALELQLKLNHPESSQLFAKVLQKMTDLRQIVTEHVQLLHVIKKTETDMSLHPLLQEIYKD
Put plainly: PPAR receptor transactivation assay, mouse PPARγ. Type of assay: cell-based.

Assay [2] addresses T6, PPARα (UniProt Q4PNY3).
T6 construct: This is inferred from the cell pool name 'UAS-bla-Gal4' and from the general description in b82 and b85
T6 sequence (Q4PNY3 1-467): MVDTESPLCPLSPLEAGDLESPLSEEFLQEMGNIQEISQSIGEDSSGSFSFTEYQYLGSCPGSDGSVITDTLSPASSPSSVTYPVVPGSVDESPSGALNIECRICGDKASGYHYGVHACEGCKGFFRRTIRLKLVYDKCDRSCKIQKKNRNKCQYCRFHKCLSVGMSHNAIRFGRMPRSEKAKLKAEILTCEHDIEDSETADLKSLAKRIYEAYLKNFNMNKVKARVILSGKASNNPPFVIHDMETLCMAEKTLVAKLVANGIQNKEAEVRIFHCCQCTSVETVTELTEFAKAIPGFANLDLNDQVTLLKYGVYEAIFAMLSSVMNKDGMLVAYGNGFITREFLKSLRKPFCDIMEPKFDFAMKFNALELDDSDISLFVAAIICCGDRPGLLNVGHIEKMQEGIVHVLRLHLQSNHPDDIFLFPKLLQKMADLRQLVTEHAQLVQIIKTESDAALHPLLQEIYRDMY
Put plainly: PPAR receptor transactivation assay, monkey PPARα. In kind it is cell-based.

A further assay relates to rat muscle cell lines. Put plainly: fatty acid oxidation in rat muscle cell line. In kind it is cell-based. The note with it: in vitro.

The structures appear in SMILES notation.

What is called EC50 is the concentration that produces a half-maximal response. As to `Cc1cc(OC/C=C(/c2ccc(F)cc2)c2ccc(C#CCN3CCOCC3)cc2)ccc1OCC(=O)O` [Compound 1, (E)-[4-[3-(4-Fluorophenyl)-3-[4-[3-(morpholin-4-yl)propynyl]phenyl]allyloxy]-2-methyl-phenoxy]acetic acid], the EC50 on PPARδ was 6.6 nM; on PPARα [1] it was more than 10000 nM; at PPARγ it was more than 10000 nM; at PPARα [2], more than 1000 nM. Further, the “expression of CPT1b” value in the assay with PGC1, CPT1b expression is “increased the expression”. The “expression of PGC1” value in the assay on PGC1, CPT1b expression was “increased the expression”. Also, at LXRβ, the “activity on the nuclear receptor LXRβ” value was “did not show any”. For the same compound, the “activity on the nuclear receptor LXRα” value on LXRα is on record as “did not show any”. Besides, in the assay with rat muscle cell lines, the fatty acid oxidation result is on record as “dose-dependent increase”.
